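Grown in 96-well plates, cells were treated for 48 hours with each compound at five concentrations. Insufficient inhibition: endpoint recorded as highest concentration tested. At the TGI there is no net growth.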
Legend:
Assay in all cases: DTP human tumour cell line panel, 48 h
786-0 renal = system: 786-0 renal
A549 NSCLC = system: A549 NSCLC
ACHN renal = system: ACHN renal
CAKI-1 renal = system: CAKI-1 renal
CCRF-CEM leukemia = system: CCRF-CEM leukemia
COLO 205 colon = system: COLO 205 colon
DU-145 prostate = system: DU-145 prostate
EKVX NSCLC = system: EKVX NSCLC
HCC-2998 colon = system: HCC-2998 colon
HCT-116 colon = system: HCT-116 colon
HCT-15 colon = system: HCT-15 colon
HL-60(TB) leukemia = system: HL-60(TB) leukemia
HOP-62 NSCLC = system: HOP-62 NSCLC
HOP-92 NSCLC = system: HOP-92 NSCLC
HS 578T breast = system: HS 578T breast
HT29 colon = system: HT29 colon
IGROV1 ovarian = system: IGROV1 ovarian
K-562 leukemia = system: K-562 leukemia
KM12 colon = system: KM12 colon
LOX IMVI melanoma = system: LOX IMVI melanoma
M14 melanoma = system: M14 melanoma
MALME-3M melanoma = system: MALME-3M melanoma
MCF7 breast = system: MCF7 breast
MDA-MB-231 breast = system: MDA-MB-231 breast
MDA-MB-435 = system: MDA-MB-435
MDA-N = system: MDA-N
MOLT-4 leukemia = system: MOLT-4 leukemia
NCI-H226 lung = system: NCI-H226 lung
NCI-H23 lung = system: NCI-H23 lung
NCI-H460 lung = system: NCI-H460 lung
NCI-H522 lung = system: NCI-H522 lung
NCI/ADR-RES ovarian = system: NCI/ADR-RES ovarian
OVCAR-3 ovarian = system: OVCAR-3 ovarian
OVCAR-4 ovarian = system: OVCAR-4 ovarian
OVCAR-5 ovarian = system: OVCAR-5 ovarian
OVCAR-8 ovarian = system: OVCAR-8 ovarian
PC-3 prostate = system: PC-3 prostate
RPMI-8226 leukemia = system: RPMI-8226 leukemia
RXF 393 renal = system: RXF 393 renal
SF-268 CNS = system: SF-268 CNS
SF-295 CNS = system: SF-295 CNS
SF-539 CNS = system: SF-539 CNS
SK-MEL-2 melanoma = system: SK-MEL-2 melanoma
SK-MEL-28 melanoma = system: SK-MEL-28 melanoma
SK-MEL-5 melanoma = system: SK-MEL-5 melanoma
SK-OV-3 ovarian = system: SK-OV-3 ovarian
SN12C renal = system: SN12C renal
SNB-19 CNS = system: SNB-19 CNS
SNB-75 CNS = system: SNB-75 CNS
SR leukemia = system: SR leukemia
SW-620 colon = system: SW-620 colon
T-47D breast = system: T-47D breast
TK-10 renal = system: TK-10 renal
U251 CNS = system: U251 CNS
UACC-257 melanoma = system: UACC-257 melanoma
UACC-62 melanoma = system: UACC-62 melanoma
UO-31 renal = system: UO-31 renal
A498 renal = system: A498 renal
BT-549 breast = system: BT-549 breast

Measured: TGI

CC(C)(C)[Si](C)(C)OCC1CCC(n2cnc3c(=O)[nH]cnc32)O1 (centres undefined)
99.8 µM: SNB-75 CNS
> 100 µM: 786-0 renal | A549 NSCLC | ACHN renal | CAKI-1 renal | CCRF-CEM leukemia | COLO 205 colon | DU-145 prostate | EKVX NSCLC | HCC-2998 colon | HCT-116 colon | HCT-15 colon | HL-60(TB) leukemia | HOP-62 NSCLC | HOP-92 NSCLC | HS 578T breast | HT29 colon | IGROV1 ovarian | K-562 leukemia | KM12 colon | LOX IMVI melanoma | M14 melanoma | MALME-3M melanoma | MCF7 breast | MDA-MB-231 breast | MDA-MB-435 | MDA-N | MOLT-4 leukemia | NCI-H226 lung | NCI-H23 lung | NCI-H460 lung | NCI-H522 lung | NCI/ADR-RES ovarian | OVCAR-3 ovarian | OVCAR-4 ovarian | OVCAR-5 ovarian | OVCAR-8 ovarian | PC-3 prostate | RPMI-8226 leukemia | RXF 393 renal | SF-268 CNS | SF-295 CNS | SF-539 CNS | SK-MEL-2 melanoma | SK-MEL-28 melanoma | SK-MEL-5 melanoma | SK-OV-3 ovarian | SN12C renal | SNB-19 CNS | SR leukemia | SW-620 colon | T-47D breast | TK-10 renal | U251 CNS | UACC-257 melanoma | UACC-62 melanoma | UO-31 renal

C=CCN1C(=O)CC1N(CC=C)S(=O)(=O)c1ccc(C)cc1 (centres undefined)
> 100 µM: 786-0 renal | A498 renal | A549 NSCLC | ACHN renal | BT-549 breast | CAKI-1 renal | CCRF-CEM leukemia | COLO 205 colon | DU-145 prostate | EKVX NSCLC | HCC-2998 colon | HCT-116 colon | HCT-15 colon | HL-60(TB) leukemia | HOP-92 NSCLC | HS 578T breast | HT29 colon | IGROV1 ovarian | K-562 leukemia | KM12 colon | LOX IMVI melanoma | M14 melanoma | MALME-3M melanoma | MCF7 breast | MDA-MB-435 | MDA-N | MOLT-4 leukemia | NCI-H226 lung | NCI-H23 lung | NCI-H460 lung | NCI-H522 lung | NCI/ADR-RES ovarian | OVCAR-3 ovarian | OVCAR-4 ovarian | OVCAR-5 ovarian | OVCAR-8 ovarian | PC-3 prostate | RPMI-8226 leukemia | RXF 393 renal | SF-295 CNS | SK-MEL-28 melanoma | SK-MEL-5 melanoma | SK-OV-3 ovarian | SN12C renal | SNB-19 CNS | SR leukemia | SW-620 colon | TK-10 renal | U251 CNS | UACC-257 melanoma | UACC-62 melanoma | UO-31 renal

— PubChem BioAssay (NCI)
